Experimental data taken from patent US11590150B2, “Pharmaceutical composition for preventing or treating adverse drug reactions by statin” (INDUSTRY-ACADEMIC COOPERATION FOUNDATION, YONSEI UNIVERSITY, priority 2017, dated 2023).
Like-named read-outs stand apart in the source and are kept apart here.

Assays:
[1] = Total cholesterol, HDL and LDL concentrations in mice (Example 6); format: in vivo, mouse; details: statin, oxysterol and mevalonate all administered
Experimental: (§1) In order to examine whether administration of an isoprenoid-based compound reduces statin-induced adverse effects even in vivo, 100 mg of statin (fluvastatin) was added to 1 kg of feed, and the mixture was fed to 8-week-old C57BL6/J mice for 14 days. Subsequently, mevalonate was administered intraperitoneally to the mice at a dose of 30 mg per kg of mouse body weight for 4 consecutive days, and then lipopolysaccharide (SIGMA) was administered intraperitoneally to mice at a lipopolysaccharide dose of 12 mg per kg of mouse body weight, thereby producing oxysterol in the mouse body. 72 hours after administration of the lipopolysaccharide, the mice were euthanized, and then kidney tissue was extracted by performing cardiac perfusion with 4% paraformaldehyde in DPBS (Dulbecco's phosphate-buffered saline). The extracted kidney tissue was subjected to H & E (Hematoxylin & Eosin) staining, PAS (periodic acid-Schiff) staining and immunohistochemistry of neutrophil gelatinase-associated lipocalin (NGAL) that is an early diagnostic marker of acute renal failure, thereby determining whether acute kidney damage and acute renal failure would occur. In addition, the concentrations of total cholesterol, high-density lipoprotein (HDL) and low-density lipoprotein (LDL) were measured.

C57BL6/J mice = format: in vivo, mouse; details: for therapeutic effect on kidney damage (H & E, PAS): mevalonate 30 mg/kg i.p. 4 days
Experimental: as §1

[2] = tested on: neutrophil gelatinase-associated lipocalin (NGAL); experiment: Kidney NGAL immunohistochemistry in fluvastatin-fed mice given mevalonate and lipopolysaccharide (Example 6); format: in vivo, mouse; details: mevalonate 30 mg/kg i.p. 4 days
Experimental: as §1

[3] = tested on: human kidney tubule cell line HK-2; experiment: LDH assay of cell death in HK-2 cells treated with statin and/or oxysterol; format: cell-based; details: 1 μM zaragozic acid with 10 μg/mL 25-hydroxycholesterol
Experimental: To analyze the relationship between statins and oxysterols, the human kidney tubule cell line HK-2 (human kidney-2 cell line; ATCC CRL-2190™) was seeded into a 24-well plate at a density of 1×10^5 per well. […] Subsequently, the cells were cultured in an incubator at 37° C. under 5% CO2 for 72 hours, and then the degree of cell death in each well was analyzed using an LDH assay kit (Takara, Cat #. MK401).
In order to examine whether the same results appear even in the presence of various types of oxysteols, an experiment was performed in the same manner as Example 1.1. As statin, 5 μM of atorvastatin was used, and as oxysterols, 0.1 μg/mL of 25-hydroxycholesterol, 7-ketocholesterol, cholesterol 5,6-epoxide, 24-hydroxycholesterol and 27-hydroxycholesterol were used.
In order to examine whether isoprenoid-based compounds can reduce adverse effects which are induced by co-administration of oxysterol and statin, the cell line was treated with oxysterol (0.1 μg/mL of 25-hydroxycholestyerol) and statin (5 μM of atorvastatin) in the same manner as Example 1.1, and treated with 10 μM of farnesyl pyrophosphate, 200 μM of mevalonate or 10 μM of geranylgeranyl pyrophosphate, which is an isoprenoid-based compound.

Structure (SMILES)	concentration of low-density lipoprotein [1]	concentration of total cholesterol [1]	therapeutic effect on kidney damage (H & E, PAS) (C57BL6/J mice; group with statin and oxysterol co-administered)	therapeutic effect on kidney damage (H & E, PAS) (C57BL6/J mice; kidney damage caused by oxysterol formation, no statin)	damage to kidney tissue (C57BL6/J mice; statin, oxysterol and mevalonate all administered)	expression of NGAL ([2]; oxysterol generation induced after administration of statin)	therapeutic effect on expression of NGAL ([2]; oxysterol generation induced without statin)	adverse effects / viability of the cells [3]
CC(O)(CCO)CC(=O)O (centres unmarked) [mevalonate]	decreased	decreased	exhibited a significant effect	showed no therapeutic effect	kidney tissue was not damaged	the expression of NGAL significantly decreased	showed no significant therapeutic effect	
C=C(CC[C@]12O[C@H](C(=O)O)[C@@](O)(C(=O)O)[C@](C(=O)O)(O1)[C@H](OC(=O)/C=C/[C@@H](C)C[C@@H](C)CC)[C@H]2O)[C@@H](OC(C)=O)[C@H](C)Cc1ccccc1 [zaragozic acid]								the adverse effects were reduced to some degrees, and thus the viability of the cells increased
